# How the values were obtained:
# supragingival plaque [1] = assay: Clinical trial: microbial composition of supragingival plaque (16S rRNA gene sequencing), whole community; format: in vivo, human
# Excerpt: (§1) Following the completion of the examination and supragingival plaque collection, participants received a supragingival scaling, clean and prophylaxis of all their teeth. At the completion of the last examination for leg 3, each participant received a professional fluoride treatment.
# (§2) Participants had all supragingival plaque collected from the buccal surfaces of their maxillary molars (teeth 17, 16, 26 & 27) with a sterile scaling instrument. The plaque samples from each tooth were placed in separate sterile tubes, to give four samples per participant.
# (§3) Genomic DNA was extracted from the plaque using a combination of mechanical disruption of the cells via a Precellys homogeniser and the chemical extraction and purification of the genomic DNA via the PowerLyzer PowerSoil DNA Isolation Kit (MoBio). Quantitation of the extracted DNA was achieved using a Qubit dsDNA High Sensitivity Assay kit (ThermoFisher), before 5 ng DNA was used as template in a PCR reaction that amplified the V4 variable region of the 16S ribosomal RNA gene and individually barcoded the PCR product from each sample. The barcoded DNA was then sequenced using an Ion Torrent Personal Genome machine and Torrent Suite™ Software (ThermoFisher).
# (§4) Analysis of the resulting sequence of the 16S ribosomal RNA gene enabled identification of the bacterial population present in each sample, down to the species level. […]
# The individual 16S rDNA sequences produced for each sample were used to both classify the microbial lineages present (grouped as species level taxa) and determine the abundances of each taxon. Differences in the bacterial community over time was determined by measuring the changes in the relative taxon abundances for each individual.
# Leptotrichia wadei = assay: Clinical trial: plaque microbial analysis, Leptotrichia wadei; format: in vivo; details: 18.8 mg CPP-ACP sugar-free gum, 20 min six times per day, 14 days, vs no gum chewing; supragingival plaque
# Excerpt: as §1, §2, §3, §4
# Leptotrichia buccalis = assay: Clinical trial: plaque microbial analysis, Leptotrichia buccalis; format: in vivo; details: 18.8 mg CPP-ACP sugar-free gum, 20 min six times per day, 14 days, vs no gum chewing; supragingival plaque
# Excerpt: as §1, §2, §3, §4
# supragingival plaque [2] = assay: Clinical trial: plaque index (Turesky modification of the Quigley-Hein Index); format: in vivo, human; details: CPP-ACP gum (18.8 or 56.4 mg), 14 days, vs no gum chewing; FIG. 1
# Procedure: Following the completion of the examination and supragingival plaque collection, participants received a supragingival scaling, clean and prophylaxis of all their teeth. At the completion of the last examination for leg 3, each participant received a professional fluoride treatment. Supragingival plaque was assessed using the Turesky modification of the Quigley-Hein Index (Turesky et al 1970 J Periodontol 41(1):41-43). This index is recognised as a reliable estimate of the tooth area covered by plaque and is frequently used for evaluating anti-plaque agents. The plaque index was obtained by adding the scores for each tooth and dividing by the number of surfaces examined. Plaque scores associated with unrestored labial, buccal and lingual surfaces of all teeth, except third molars were assessed. Each surface was assigned a score from 0 to 5.
# gingivitis = assay: Clinical trial: gingivitis by Modified Gingival Index; format: in vivo, human; details: CPP-ACP gum (18.8 and 56.4 mg), 14 days, vs no gum chewing; FIG. 2
# Procedure: Following the completion of the examination and supragingival plaque collection, participants received a supragingival scaling, clean and prophylaxis of all their teeth. At the completion of the last examination for leg 3, each participant received a professional fluoride treatment. Gingivitis was measured using the Modified Gingival Index [Lobene et al 1986]. This index is a modification of the Loe and Silness Gingival Index and allows greater discrimination for mild and moderate gingivitis. In this study, gingival inflammation on a scale from 0 to 4 was scored for gingival tissues associated with four sites (buccal, lingual, mesial and distal) of all teeth.
substance,measurement,setting,value
Casein phosphopeptide-amorphous calcium phosphate [CPP-ACP],increases in commensal/beneficial species at the 56.4 mg dose compared with the 18.8 mg dose,"supragingival plaque [1]; 56.4 mg CPP-ACP gum, 20 min six times per day, 14 days",significantly greater
same,proportion of pathogenic species (pathobionts),"supragingival plaque [1]; CPP-ACP gum, 14 days, vs no treatment",concomitant reduction
same,proportion of the health-associated symbionts,"supragingival plaque [1]; CPP-ACP treatment, randomised controlled clinical study",significant increase
same,"% decrease in relative abundance, Leptotrichia wadei",Leptotrichia wadei,91% (p < 0.001)
same,"% decrease in relative abundance, Leptotrichia buccalis",Leptotrichia buccalis,76% (p < 0.05)
same,plaque index,supragingival plaque [2],did not produce a significant change
same,gingival index,gingivitis,significant CPP-ACP dose-related improvement

# Reference: patent publication US11717536B2, “Treatment for periodontitis” (THE UNIVERSITY OF MELBOURNE, priority 2017, dated 2023)
